Assay results as given in US8968709B2, “Therapeutic dental composition and related methods” (3M Innovative Properties Company, priority 2007, dated 2015).
Converted amounts (≈) assume the structure as drawn. Like-named read-outs stand apart in the source and are kept apart here.

Key:
Assay type in all cases: cell-based
[1] = tested on: Streptococcus mutans (ATCC 25175) biofilm; assay: Quantitative Biofilm Inhibition Test; details: average optical density at 550 nm as percentage of control; 1 weight percent compound, 1.0 weight percent sucrose in brain heart infusion broth, 37° C., approximately twenty hours, five discs
Experimental: Compounds of the dental compositions of the invention, and comparative compounds, were evaluated for biofilm inhibition activity. Composite dental restorative (available under the trade designation “FILTEK SUPREME” from 3M ESPE Dental Products, St. Paul, Minn.) was placed in a 15 millimeter by 1 millimeter stainless steel die. The open ends of the die were then covered with polyester film and the die was subjected to a pressure of 68.95 MPa using a hydraulic press. While the die containing the composite restorative was under compression, the composite was irradiated for two minutes using a Model ACE light source (available from SCHOTT North America, Inc., Auburn, N.Y.). The discs of cured composite restorative were then further cured using a Model UniXS light box (available from Heraeus Kulzer, Inc., Armonk, N.Y.) for 1.5 minutes.
The cured discs of composite restorative were then immersed in ten milliliters of Streptococcus mutans culture (ATCC 25175; 10^6 CFU/mL) prepared in brain heart infusion broth that contained 1.0 weight percent sucrose and 1 weight percent of a compound of the dental composition. The samples were incubated at 37° C. for approximately twenty hours, after which time the cured discs were removed from the broth and were gently rinsed with water. Each disc was placed in a separate test tube containing five milliliters of 1M aqueous sodium hydroxide solution, and each test tube was then sonicated for two minutes using a model SH1012-40-8 ultrasonic generator (manufactured by Branson Ultrasonics Corp., Danbury, Conn.) for two minutes to dislodge biofilm on the disc. The optical absorbance (optical density) of each aqueous sodium hydroxide solution was then measured at 550 nm using a Model ULTROSPEC III UV-visible spectrophotometer (manufactured by Pharmacia AB, Uppsala, Sweden). For each compound of the dental composition, five discs were separately incubated in broth and were evaluated separately to provide five optical density measurements. The average of the five optical density measurements was then calculated. […] The average optical density of the control or comparative samples was determined as described above. The ratio, expressed as a percentage, of the average optical density for each compound sample to the average optical density for a control sample was calculated by dividing the average optical density for each compound sample by the average optical density for a control sample and multiplying the result by one hundred. The ratio was considered to be proportional to the average amount of biofilm on the five cured discs, i.e., relatively low average optical density ratio was considered to be indicative of inhibition of biofilm formation. The ratio for the control was 100%.
(§1) The Biofilm Inhibition Test was carried out using compounds of the dental composition. […] In addition, a qualitative determination of biofilm formation was made for each Example and the Comparative Example in which each disc was visually examined before it was placed in the tube containing the aqueous sodium hydroxide solution.

[2] = tested on: Staphylococcus aureus (strain ATCC 6538); assay: Minimum Inhibitory Concentration (MIC) Test, S. aureus; details: tryptic soy broth, 37° C., 24 hours, "none" = no inhibitory activity detected
Experimental: (§2) The MIC Test was carried out using successively lower concentrations of compounds. Sterile tryptic soy broth (50 microliters; TSB, available from BD Dfico, Becton, Dickinson and Company, Franklin Lakes, N.J.) was deposited into each well of a sterile polystyrene 96-well microtiter plate. Into each well in the first (leftmost) column of the plate, there was then deposited a 50 microliter aliquot (of known concentration) of a compound (I.e., a compound of Formula I, or a pharmaceutically acceptable salt thereof, or comparative compound). A 50 microliter aliquot of the mixture in the first (leftmost) well in the first row of the plate was transferred to the second well in the first row. A 50 microliter aliquot of the mixture in the second well in the first row was then transferred to the third well in the first row. The compound was successively diluted (1:1 dilution at each step) by transferring a 50 microliter aliquot from one well into the next well, across the row of the plate. This procedure was repeated for each row of the plate. Then, an overnight culture of Streptococcus mutans (strain ATCC 25175) was diluted 1:100 into sterile tryptic soy broth. A 50 microliter aliquot of the diluted S. mutans culture (10^5 CFU) was deposited into each well of the microtiter plate. The plate was then incubated at 37° C. for 24 hours in a sealed humidified chamber. The plate was then visually inspected to determine the lowest concentration of compound at which no bacterial growth was visible. This value was considered to be the minimum inhibitory concentration (MTC) for the compound. The test was repeated using Staphylococcus aureus (strain ATCC 6538) and Pseudomonas aeruginosa (strain ATCC 9027) in place of S. mutans. A sample of each of the compounds of Formulae II, III, IV, V, and VI (0.050 g each) was dissolved in water (5 g). Each of the samples was evaluated using the Minimum Inhibitory Concentration (MIC) Test described above with S. mutans, S. aureus, and P. aeruginosa. In Table 3, “none” means that no inhibitory activity was detected.

[3] = tested on: Streptococcus mutans (strain ATCC 25175); assay: Minimum Inhibitory Concentration (MIC) Test, S. mutans; details: 37° C., 24 hours, "none" = no inhibitory activity detected
Experimental: as §2

[4] = tested on: Streptococcus mutans (ATCC 25175) biofilm; assay: Qualitative Biofilm Inhibition Test (visual examination of discs); parameters: key: +: a visual assessment that a compound inhibited biofilm formation; −: a visual assessment that either a compound did not inhibit biofilm formation, or that bacteria grew in the culture broth; details: visible biofilm on cured composite disc after incubation and water rinse; 1 weight percent compound, 1.0 weight percent sucrose
Experimental: as §1, with “During the procedure for the Quantitative Biofilm Inhibition Test, each cured disc was visually examined after it was removed from the broth (and rinsed with water) and before it was placed in a test tube containing five milliliters of 1M aqueous sodium hydroxide solution. The presence or absence of visible biofilm on a disc was noted. The” for “The”

[5] = tested on: Pseudomonas aeruginosa (strain ATCC 9027); assay: Minimum Inhibitory Concentration (MIC) Test, P. aeruginosa; details: 37° C., 24 hours, "none" = no inhibitory activity detected
Experimental: as §2

[6] = tested on: Streptococcus mutans (ATCC 25175) biofilm; assay: Biofilm Inhibition Test: concentration of compound to inhibit biofilm formation at varied sucrose
[7] = Streptococcus mutans, ATCC25175, tryptic soy broth, read-out: MIC

SMILES	OD Ratio [1] [%]	MIC [2]	MIC ([3]; tryptic soy broth)	Visual Assessment [4]	MIC ([5]; tryptic soy broth)	Concentration of Compound to Inhibit Biofilm Formation ([6]; 1 wt % Sucrose) [mM]	Concentration of Compound to Inhibit Biofilm Formation ([6]; 2.5 wt % Sucrose) [mM]	Concentration of Compound to Inhibit Biofilm Formation ([6]; 5 wt % Sucrose) [mM]	MIC [3, 7] [µg/mL]	MIC ([5]; Pseudomonas aeruginosa, ATCC9027, tryptic soy broth, read-out: MIC) [µg/mL]
NC[C@H](O)[C@@H](O)[C@H](O)[C@H](O)CO [D-Glucamine, D-glucamine]	101.5	none	none	+	none	–	–	–	–	–
CNC[C@H](O)[C@@H](O)[C@H](O)[C@H](O)CO [N-Methyl-D-glucamine, N-methyl-D-glucamine]	0	none	none	+	none	50	50	50	–	–
CCCCCCCCCC(=O)N(C)C[C@H](O)[C@@H](O)[C@H](O)[C@H](O)CO [N-Methyl-N-decanoyl-D-glucamine, N-methyl-N-decanoyl-D-glucamine]	0	2.50	–	+	–	–	–	–	1250 (≈ 3.58 mM)	2500 (≈ 7.15 mM)
CCCCCCCCC(=O)N(C)C[C@H](O)[C@@H](O)[C@H](O)[C@H](O)CO [N-Methyl-N-nonanoyl-D-glucamine, N-methyl-N-nonanoyl-D-glucamine]	0	none	–	+	none	–	–	–	2500 (≈ 7.45 mM)	–
CCCCCCCC(=O)N(C)C[C@H](O)[C@@H](O)[C@H](O)[C@H](O)CO [N-Methyl-N-octanoyl-D-glucamine, N-methyl-N-octanoyl-D-glucamine]	0	none	none	+	none	–	–	–	–	–
